# Assay results published in PubChem BioAssay (NCI).
# Several values for one entry are separate records, joined by “and”; a condition that tells them apart may be missing. Equal values may be shown once.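 Interpolation was linear, between the two tested concentrations surrounding the appropriate level; five concentrations were tested over 48 hours in 96-well plates. The concentration for 50% growth inhibition is given as GI50. Definition used: TGI = concentration required for complete inhibition of growth.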
# What was measured:
# Test in all cases: growth of human tumour cells (NCI), 48 h
# NCI-H460 lung = test system: NCI-H460 lung
# HCT-15 colon = test system: HCT-15 colon
# UO-31 renal = test system: UO-31 renal
# SF-539 CNS = test system: SF-539 CNS
# HT29 colon = test system: HT29 colon
# OVCAR-4 ovarian = test system: OVCAR-4 ovarian
# T-47D breast = test system: T-47D breast
# 786-0 renal = test system: 786-0 renal
# HCT-116 colon = test system: HCT-116 colon
# UACC-62 melanoma = test system: UACC-62 melanoma
Structure (SMILES),GI50 (NCI-H460 lung) [nM],TGI (NCI-H460 lung),GI50 (HCT-15 colon),TGI (HCT-15 colon),GI50 (UO-31 renal),GI50 (SF-539 CNS),TGI (SF-539 CNS),GI50 (HT29 colon) [nM],TGI (HT29 colon),GI50 (OVCAR-4 ovarian) [nM],TGI (OVCAR-4 ovarian),GI50 (T-47D breast) [nM],TGI (T-47D breast),GI50 (786-0 renal) [nM],GI50 (HCT-116 colon),TGI (HCT-116 colon),GI50 (UACC-62 melanoma) [nM],TGI (UO-31 renal),TGI (786-0 renal),TGI (UACC-62 melanoma)
Cc1cc(C)c2c(n1)sc1c(Nc3ccc(Cl)cc3)ncnc12,< 10,> 100000 nM,< 10 nM,> 100000 nM,< 10 nM,< 10 nM,88.2 nM,< 15.2,> 100000 nM,> 100000,> 100000 nM,29.9,> 100000 nM,< 10,< 10 nM,> 100000 nM,< 10,,,
Cc1ccc(SC2c3ccc(C)cc3Oc3nc(N)c(C#N)c(N)c32)cc1 (stereo unspecified),1940,4070 nM,1720 nM,3230 nM,1180 nM,1800 nM,3820 nM,2000,3900 nM,1800,3290 nM,1800,5010 nM,1720,1880 nM,3580 nM,1610,2490 nM,3160 nM,3130 nM
CN1CCN(C2CCN(C(=O)Nc3cc(Oc4ccc(NC(=O)C5(C(=O)Nc6ccc(F)cc6)CC5)c(F)c4)ccn3)CC2)CC1,1440,> 10000 nM,2040 nM,> 10000 nM,1460 nM,994 nM,> 2200 nM,806,> 4380 nM,1140,9840 nM,5560,> 10000 nM,1670,1050 nM,> 10000 nM,771,> 10000 nM,> 10000 nM,> 2020 nM
CC/C=C\C[C@H](O)C/C=C1/C(=O)C(Cl)=C[C@@H]1C/C=C\CCCC(=O)OC,558,2220 nM,387 nM,1670 nM,413 nM,818 nM,3050 nM,406,1070 nM,723,3210 nM,985,4370 nM,486,275 nM,576 nM,270,1290 nM,1560 nM,717 nM
CC1(C)N=C(N)N=C(N)N1c1ccc(CCCCc2ccc(Cl)cc2S(=O)(=O)F)c(Cl)c1,117,13500 nM,464 nM,> 51300 nM,6220 nM,539 nM,6760 nM,374,14500 nM,3110,19200 nM,1870,7560 nM,428,346 nM,> 38300 nM,344,23600 nM,8080 nM,14300 nM
O=C(Nc1ccc(Br)cc1F)c1cc(F)ccc1O,491,9750 nM,773 nM,7340 nM,210 nM,420 nM,4200 nM,3190,> 36700 nM,612,> 27800 nM,511,5590 nM,2410,440 nM,1960 nM,285,1270 nM,7490 nM,1000 nM
NC(N)=N/N=C/c1c(-c2ccsc2)nc2sccn12,14800,28000 nM,17100 nM,31700 nM,20000 nM,18300 nM,34200 nM,11600,25300 nM,13600,27100 nM,16800,31900 nM,12000,13700 nM,27200 nM,15600,36800 nM,24300 nM,29000 nM
COc1cccc2c1C(=O)c1c(O)c3c(c(O)c1C2=O)C[C@@](O)(C(=O)CO)C[C@@H]3OC1CC(N)CC(C)O1 (stereo partly specified),,421 nM and 192 nM,183 nM and 125 nM,3570 nM and 2530 nM,192 nM and 362 nM,18.9 nM and 47.1 nM,194 nM and 211 nM,29.6,1100 nM and 809 nM,88.5,456 nM and 413 nM,67,1130 nM and 696 nM,20,15.5 nM and 43.1 nM,790 nM and 330 nM,30.8,771 nM and 1610 nM,514 nM and 568 nM,148 nM and 69.1 nM
COc1cccc(F)c1C(=O)c1cnc(NC2CCN(S(C)(=O)=O)CC2)nc1N,862,> 25000 nM,3630 nM,> 25000 nM,4600 nM,3680 nM,11700 nM,2540,23300 nM,5610,> 25000 nM,5220,24400 nM,6060,1340 nM,> 25000 nM,2660,21900 nM,> 25000 nM,9420 nM
N#Cc1c(NC(=O)NCc2ccccc2)sc2c1CCCCC2,352,> 31700 nM,417 nM,> 100000 nM,626 nM,328 nM,1870 nM,398,> 100000 nM,1320,> 100000 nM,343,> 100000 nM,761,528 nM,> 100000 nM,533,> 100000 nM,> 100000 nM,> 40200 nM
Cn1cc(C2=C(c3ccc(N)cc3)C(=O)NC2=O)c2ccccc21,23300,> 25000 nM,11500 nM,> 25000 nM,16500 nM,9020 nM,> 25000 nM,12500,> 25000 nM,> 25000,> 25000 nM,> 24000,> 25000 nM,11900,11300 nM,> 25000 nM,11800,> 25000 nM,> 25000 nM,> 25000 nM
COc1ccc(OC)c2c1[nH]c(=O)c1c3ccccc3cn21,1100,2730 nM,693 nM,2420 nM,1110 nM,1690 nM,3080 nM,813,2540 nM,1380,3100 nM,1300,4070 nM,1880,673 nM,2010 nM,1550,2380 nM,3340 nM,2920 nM
